# Experimental data reported in ChEMBL document CHEMBL4043217, “A prodrug design for improved oral absorption and reduced hepatic interaction” (Bioorg Med Chem, 2017).
# The source made the active and inactive calls. The calls are words filed in the database; no cut-off is given here.
# Columns and labels:
# [1] = Prodrug conversion in human plasma assessed as esterase-mediated estradiol release by measuring saponification level after 10 mins by ELISA method; type: ADME; conditions: isolated protein
# Rattus norvegicus [2] = experiment: Estrogenic effect in ovariectomized adult female Wistar rat assessed as uterine weight level at 1 ug, po dosed from day 1 to 3 and measured on day 4 relative to untreated control; type: functional
# Rattus norvegicus [3] = experiment: Estrogenic effect in ovariectomized adult female Wistar rat assessed as uterine weight level at 10 ug, po dosed from day 1 to 3 and measured on day 4 relative to untreated control; type: functional
# Carbonic anhydrase 2 = Carbonic anhydrase 2 (Homo sapiens, UniProt P00918)
# Description: Inhibition of human CA2 catalytic activity pre-incubated for 15 mins followed by 4-NPA substrate addition and measured every 12 to 15 secs for 5 mins by spectrophotometry
# Rattus norvegicus [4] = experiment: AUC (0 to 3 hrs) in rat at 3 mg, po; type: ADME; parameters: time < 3 hr, dose 3 mg, route oral; conditions: in vivo
# Rattus norvegicus [5] = experiment: Increase in testosterone level in orally dosed male rat serum relative to testosterone-propionate; type: functional, organism-based
# [6] = Clearance in Sprague-Dawley rat blood at 1 mg/kg, iv; type: ADME, organism-based
# [7] = Volume of distribution in Sprague-Dawley rat blood at 1 mg/kg, iv; type: ADME, organism-based
# [8] = Half life in Sprague-Dawley rat blood at 5 mg/kg, po; type: ADME, organism-based
# Estrogen receptor = target: T1, Estrogen receptor (Homo sapiens, UniProt P03372); experiment: Binding affinity to ER (unknown origin) expressed in UAS-bla GripTite 293 cells by Select screen competitive binding assay; type: cell-based
# T1 sequence (P03372 whole entry): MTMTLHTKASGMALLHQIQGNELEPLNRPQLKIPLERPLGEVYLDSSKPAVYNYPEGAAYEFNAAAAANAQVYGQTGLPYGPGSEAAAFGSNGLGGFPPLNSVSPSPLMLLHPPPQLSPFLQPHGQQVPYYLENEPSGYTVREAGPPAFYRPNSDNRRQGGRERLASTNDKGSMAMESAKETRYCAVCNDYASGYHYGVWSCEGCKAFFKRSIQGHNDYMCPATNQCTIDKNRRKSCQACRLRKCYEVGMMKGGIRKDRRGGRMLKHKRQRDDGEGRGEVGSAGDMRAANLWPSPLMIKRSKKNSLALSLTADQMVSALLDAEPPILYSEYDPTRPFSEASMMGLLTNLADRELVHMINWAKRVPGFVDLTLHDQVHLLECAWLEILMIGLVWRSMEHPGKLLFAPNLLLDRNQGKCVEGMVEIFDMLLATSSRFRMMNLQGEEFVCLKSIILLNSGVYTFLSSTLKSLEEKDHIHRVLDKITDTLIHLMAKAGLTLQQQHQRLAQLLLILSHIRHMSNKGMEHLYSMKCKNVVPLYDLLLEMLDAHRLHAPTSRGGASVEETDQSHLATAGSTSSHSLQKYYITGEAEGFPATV
# [9] = Clearance in Sprague-Dawley rat plasma at 1 mg/kg, iv; type: ADME, organism-based
# [10] = Volume of distribution in Sprague-Dawley rat plasma at 1 mg/kg, iv; type: ADME, organism-based
# [11] = Half life in Sprague-Dawley rat plasma at 5 mg/kg, po; type: ADME, organism-based
# [12] = Oral bioavailability life in Sprague-Dawley rat plasma at 5 mg/kg; type: ADME, organism-based
# [13] = Oral bioavailability life in Sprague-Dawley rat blood at 5 mg/kg; type: ADME, organism-based
# Rattus norvegicus [14] = experiment: Estrogenic effect in ovariectomized adult female Wistar rat assessed as uterine weight level at 3 ug, po dosed from day 1 to 3 and measured on day 4 relative to untreated control; type: functional
SMILES,Activity (Rattus norvegicus [3]) [%],IC50 (Carbonic anhydrase 2) [nM],other results
CC(C)(NC(=O)c1ccc(S(N)(=O)=O)cc1)C(=O)O[C@H]1CC[C@H]2[C@@H]3CCc4cc(O)ccc4[C@H]3CC[C@]12C,97,232,Drug metabolism [1]: 97%; Activity (Rattus norvegicus [2]): 107%
C[C@]12CC[C@H]3[C@@H](CCC4=CC(=O)CC[C@@]43C)[C@@H]1CC[C@@H]2OC(=O)[C@@H]1CCCN1C(=O)c1ccc(S(N)(=O)=O)cn1,,,AUC (Rattus norvegicus [4]): 330 ng/mL; Activity (Rattus norvegicus [5]): Active
C[C@]12CC[C@@H]3c4ccc(O)cc4CC[C@H]3[C@@H]1CC[C@@H]2OC(=O)[C@@H]1CCCN1C(=O)c1ccc(S(N)(=O)=O)cc1,,,clearance [6]: 3.86 mL/min/kg; Vd [7]: 0.24 L/kg; half-life [8]: 4.9 h; Activity (Rattus norvegicus [2]): 244%; EC50 (Estrogen receptor): 432 nM; clearance [9]: 62.8 mL/min/kg; Vd [10]: 5.68 L/kg; half-life [11]: 4.58 h; bioavailability [12]: 102%; bioavailability [13]: 122%
C[C@H](NC(=O)c1ccc(S(N)(=O)=O)cc1)C(=O)O[C@H]1CC[C@H]2[C@@H]3CCc4cc(O)ccc4[C@H]3CC[C@]12C,,250,Drug metabolism [1]: 70%; Activity (Rattus norvegicus [14]): 163%
Cc1cc(C(=O)N2CCC[C@H]2C(=O)O[C@H]2CC[C@H]3[C@@H]4CCc5cc(O)ccc5[C@H]4CC[C@]23C)ccc1S(N)(=O)=O,258,210,
C[C@]12CC[C@@H]3c4ccc(O)cc4CC[C@H]3[C@@H]1CC[C@@H]2OC(=O)[C@@H]1CCCN1C(=O)c1ccc(S(N)(=O)=O)o1,318,250,
C[C@]12CC[C@@H]3c4ccc(O)cc4CC[C@H]3[C@@H]1CC[C@@H]2OC(=O)[C@@H]1CCCN1c1ccc(S(N)(=O)=O)cc1,92,198,
C[C@]12CC[C@@H]3c4ccc(O)cc4CC[C@H]3[C@@H]1CC[C@@H]2OC(=O)[C@@H]1CCCN1C(=O)c1ccc(S(N)(=O)=O)nc1,259,250,
C[C@@H](C(=O)O[C@H]1CC[C@H]2[C@@H]3CCc4cc(O)ccc4[C@H]3CC[C@]12C)N(C)C(=O)c1ccc(S(N)(=O)=O)cc1,289,325,Drug metabolism [1]: 84%; Activity (Rattus norvegicus [2]): 145%
CC(C)[C@H](NC(=O)c1ccc(S(N)(=O)=O)cc1)C(=O)O[C@H]1CC[C@H]2[C@@H]3CCc4cc(O)ccc4[C@H]3CC[C@]12C,267,202,Drug metabolism [1]: 89%; Activity (Rattus norvegicus [2]): 105%
C[C@]12CC[C@@H]3c4ccc(O)cc4CC[C@H]3[C@@H]1CC[C@@H]2OC(=O)[C@@H]1CCCN1C(=O)c1ccc(S(N)(=O)=O)cn1,268,5000,
C[C@]12CC[C@@H]3c4ccc(O)cc4CC[C@H]3[C@@H]1CC[C@@H]2OC(=O)[C@@H]1CCCN1Cc1ccc(S(N)(=O)=O)cc1,272,129,
C[C@]12CC[C@@H]3c4ccc(O)cc4CC[C@H]3[C@@H]1CC[C@@H]2OC(=O)[C@@H]1CCCN1C(=O)c1coc(S(N)(=O)=O)c1,313,7,
C[C@]12CC[C@@H]3c4ccc(O)cc4CC[C@H]3[C@@H]1CC[C@@H]2OC(=O)[C@@H]1CCCN1C(=O)Cc1ccc(S(N)(=O)=O)cc1,267,500,
C[C@]12CC[C@@H]3c4ccc(O)cc4CC[C@H]3[C@@H]1CC[C@@H]2OC(=O)[C@@H]1CCCN1C(=O)c1cccc(-c2ccc(S(N)(=O)=O)cc2)c1,153,120,
C[C@]12CC[C@@H]3c4ccc(O)cc4CC[C@H]3[C@@H]1CC[C@@H]2OC(=O)[C@@H]1CCCN1C(=O)c1ccc(-c2ccc(S(N)(=O)=O)cc2)cc1,309,290,
C[C@]12CC[C@@H]3c4ccc(O)cc4CC[C@H]3[C@@H]1CC[C@@H]2OC(=O)[C@@H]1CCCN1S(N)(=O)=O,268,10000,
C[C@]12CC[C@@H]3c4ccc(O)cc4CC[C@H]3[C@@H]1CC[C@@H]2OC(=O)CNC(=O)c1ccc(S(N)(=O)=O)cc1,,65,Drug metabolism [1]: 87%
C[C@]12CC[C@@H]3c4ccc(O)cc4CC[C@H]3[C@@H]1CC[C@@H]2OC(=O)[C@@H]1CCCN1C(=O)c1cccc(S(N)(=O)=O)c1,,300,
C[C@]12CC[C@@H]3c4ccc(O)cc4CC[C@H]3[C@@H]1CC[C@@H]2OC(=O)[C@@H]1CCCN1C(=O)c1cccc(-c2cccc(S(N)(=O)=O)c2)c1,216,10000,
C[C@]12CC[C@@H]3c4ccc(O)cc4CC[C@H]3[C@@H]1CC[C@@H]2OC(=O)[C@H](Cc1ccccc1)NC(=O)c1ccc(S(N)(=O)=O)cc1,117,100,Drug metabolism [1]: 75%; Activity (Rattus norvegicus [2]): 95%
